The nature of data set [1]: Arrhenius fit of CPA diffusion coefficients (constants and activation energies). Format: physicochemical. The settings on record: for Ea (activation energy) / Dcwo (Arrhenius constant): Table (1), Arrhenius fit of diffusion coefficients; for Dcwo (Arrhenius constant): R = 0.001986 Kcal/(mol. K). The procedure:
Full thickness AC (on 5-10 mm bone base) is harvested from the sample tissue using a hand-held coring device and held at 4° C. in 1× Dulbecco's phosphate-buffered saline (PBS) solution (pH 7.1) (Gibco Invitrogen, Carlsbad, Calif.). Each osteochondral dowel (OCD) is assigned to one of four CPA treatment groups [DMSO, PG, EG, glycerol (all at 6.5M, in 1×PBS)] and one of 11 incubation times (1 second, 1, 2, 5, 10, 15, 30, 60, 120, 180 minutes, 24 hours), as well as one of three temperatures (4, 22, 37° C.). Each combination of treatment, time, and temperature is repeated at least three times.
The tissue sample is isolated by scalpel and the tissue returned to 1×PBS for 5 min, then blotted lightly using Kimwipes® tissue (Kimberly-Clark, Roswell, Ga.) to remove excess fluid from the sample surface, weighed (W1), and immediately immersed in 5 ml of CPA solution for the specified incubation time at the specified temperature. After incubation, the sample is removed from the solution, blotted lightly and weighed for a second time (W2). The sample is then placed into a 35×10 mm cell culture dish (Corning Inc., Corning, N.Y.) containing 4 mL of 1×PBS, fully immersed in the PBS and the dish sealed with Parafilm® (American National Can, Chicago, Ill.) and held for 24 h at 22° C. under dark conditions to allow the CPA within the AC disc to fully equilibrate with the surrounding PBS solution. After 24 h, the CPA/PBS solution is mixed using a pipettor and a 1 mL sample is taken into a 1.5 mL microcentrifuge tube (Thermo Fisher Scientific, Waltham, Mass.). From this sample, 50 μL is placed into a μOSMETTE™ micro-osmometer (Precision Systems, Natick, Mass.) to determine its osmolality (Osm).
The values of the diffusion coefficients for the single CPA diffusion in water were used in the calculations. The values of the diffusion coefficients were calculated before, by fitting Fick's law to the experimental data, as explained in the preceding section of this patent labeled “Permeation Kinetics of CPAs in AC matrix”.
[formula] at x=0, and CCPA=C* at x=THK, where C* is the concentration of the CPA in the external bath at each step of the protocol. The temperature dependence of the diffusion coefficients was calculated by fitting an Arrhenius equation to the values of diffusion coefficients obtained for each CPA at 3 different temperatures as in the preceding section of this patent labeled “Permeation Kinetics of CPAs in AC matrix”. The values of diffusion coefficients were taken from Jomha et al (N M Jomha, G K Law, A Abazari, K Rekieh, J A W Elliott, L E McGann. Permeation of several cryoprotectant agents into porcine articular cartilage. Cryobiology 58(1), 110-114, 2009). For F (formamide), 2 values for diffusion coefficients of formamide in water at 2 different temperatures were extracted from the literature:
Then, these values were fitted to an Arrhenius equation to calculate the constant and activation energy for formamide. As an example, the increase in the minimum DMSO concentration in cartilage, diffusing from a bath of 3 M DMSO solution, at −10° C., was calculated by solving Eqn. (8) as the following:
First, the diffusion coefficient of DMSO in water at −10° C. was calculated from the results of the Arrhenius fit in Table (1). DDMSO(at T=−10° C.=263 K)=298.95×10^−9×exp(−3.9/0.001986/263)=1.71×10^−10 m^2/s

For data set [2] the following is noted: formamide in water, cited from earlier work.

Like-named read-outs stand apart in the source and are kept apart here.

Consider `C[S+](C)[O-]` [D (DMSO), dimethyl sulfoxide], for which, in data set [1], the “Ea (activation energy)” value stood at 3.9 kcal/mol and the “Dcwo (Arrhenius constant)” value is 298.95 ×10^−9 m^2/s. Also, the “diffusion coefficient of DMSO in water” value in data set [1] (at T=−10° C.=263 K, calculated from the Arrhenius fit in Table (1)) was 1.71×10^−10 m^2/s.
Regarding `OCCO` [E (EG), ethylene glycol], in data set [1], the “Ea (activation energy)” value was found to be 3.8 kcal/mol and the “Dcwo (Arrhenius constant)” value is recorded as 183.30 ×10^−9 m^2/s.
For `NC=O` [F (Form), formamide], the “Diffusion coefficient (m^2/s)” value in data set [2] (Temperature 278.2 K) is 0.95 × 10^−9 m^2/s; in data set [2] (Temperature 298.15 K) it was 1.58 × 10^−9 m^2/s. Besides, in data set [1], the “Ea (activation energy)” value turned out to be 4.198 kcal/mol. Moreover, the “Dcwo (Arrhenius constant)” value in data set [1] is 1903.510 ×10^−9 m^2/s.
For the molecule `OCC(O)CO` [G (Gly), glycerol], in data set [1], the “Ea (activation energy)” value came out at 5.6 kcal/mol and the “Dcwo (Arrhenius constant)” value is reported as 208.03 ×10^−9 m^2/s.
The matching figures for `CC(O)CO` (stereo not shown) [P (PG), propylene glycol]: 6.63 kcal/mol and 16971.0 ×10^−9 m^2/s.

Values taken from US8758988B2, “Cryopreservation of articular cartilage” (The Governors of the University of Alberta, priority 2009, dated 2014).
